Here are results for four compounds from patent US20150258059A1, “ANTIMICROBIAL AND RADIOPROTECTIVE COMPOUNDS” (BioDiem, Ltd, priority 2001, published 2015).

≈ marks a conversion by molar mass, not a printed value. Where two headings read alike, the source gives them in different places. Bounds are passed on as bounds.

The test system of one series is C. tropicalis RMIT 181. Briefly: M38-P microdilution MIC/MFC. The format is cell-based. To be noted: 35° C. (Dilution methods test growth across graded concentrations, often in twofold steps.)
In the next series the test system is Paecilomyces variotii. Briefly: M38-P microdilution MIC/MFC. The conditions noted are these: Table 16, 48 h, 35° C. The format is cell-based.
In series [1] the test system is Fusarium graminearum. Briefly: microbe, parasite or virus in culture. The format is cell-based. The conditions noted are these: Table 16; M38-P; 48 h, 35° C.
The next series deals with Rhizopus stoloniefer. Briefly: M38-P microdilution MIC/MFC. To be noted: Table 16, 48 h, 35° C. The class given is cell-based.
In another series the test system is Rhizomucor pusillus. Briefly: M38-P microdilution MIC/MFC. The format is cell-based. The conditions noted are these: Table 16, 48 h, 35° C.
A further series relates to C. parapsilosis RMIT 178. Briefly: M38-P microdilution MIC/MFC. The format is cell-based. The conditions noted are these: 35° C.
The next series deals with F. chlamydosporum. Briefly: M38-P microdilution MIC/MFC. The conditions noted are these: Table 16, 48 h, 35° C. The class given is cell-based.
The subject of another series is Fonsecaea pedrosoi. Briefly: M38-P microdilution MIC/MFC. The class given is cell-based. The conditions noted are these: Table 16, Dematiaceous fungi.
The subject of the next series is A. Niger. Briefly: M38-P microdilution MIC/MFC. The format is cell-based. To be noted: Table 16, 48 h, 35° C.
The test system of another series is Pseudoallescheria boydii. Briefly: M38-P microdilution MIC/MFC. The format is cell-based. The conditions noted are these: Table 16, Dematiaceous fungi.
For the next series, the system named is Aspergillus fumigatus. Briefly: M38-P microdilution MIC/MFC. To be noted: Table 16, 48 h, 35° C. The class given is cell-based.
The test system of series [2] is C. guillermondii RMIT 176. Description: M38-P microdilution MIC/MFC. To be noted: Table 16, 24 h, 35° C. The class given is cell-based.
Another series concerns Cryptococcus neoformans. Briefly: M38-P microdilution MIC/MFC. The class given is cell-based. The conditions noted are these: Table 16, 24 h, 35° C.
Another series has as its system Phialophora verrucosa. Briefly: M38-P microdilution MIC/MFC. To be noted: Table 16, Dematiaceous fungi. The class given is cell-based.
In the next series the test system is R. oryzae. Briefly: M38-P microdilution MIC/MFC. The conditions noted are these: Table 16, 48 h, 35° C. The format is cell-based.
The subject of the next series is C. krusei RMIT 177. Description: M38-P microdilution MIC/MFC. The class given is cell-based. The conditions noted are these: 35° C.
Series [3] concerns Candida albicans. Briefly: M38-P microdilution MIC/MFC. The class given is cell-based. To be noted: Table 16, 24 h, 35° C.
A further series concerns C. glabrate RMIT 157. Description: M38-P microdilution MIC/MFC. The class given is cell-based. The conditions noted are these: Table 16, 24 h, 35° C.
The next series relates to A. Flavus. Briefly: M38-P microdilution MIC/MFC. The class given is cell-based. The conditions noted are these: Table 16, 48 h, 35° C.
Series [4] concerns Staphylococcus aureus ATCC 29213. Description: NCCLS broth microdilution MIC/MBC. The format is cell-based. To be noted: for MIC: Staphylococcus aureus, ATCC29213, read-out: MIC.
A further series deals with S. aureus. Description: Antibacterial activity in the presence of blood, macrodilution. The format is cell-based.
Series [5] relates to Enterococcus faecalis ATCC 29212. Briefly: NCCLS broth microdilution MIC/MBC. The format is cell-based. The conditions noted are these: for MIC: Enterococcus faecalis, ATCC29212.
In series [6] the test system is Escherichia coli ATCC 25922. Briefly: NCCLS broth microdilution MIC/MBC. The class given is cell-based. The conditions noted are these: for MIC: Escherichia coli, ATCC25922, read-out: MIC.
The subject of another series is Haemophilus influenzae. Description: NCCLS broth microdilution MIC/MBC. The class given is cell-based. The conditions noted are these: Table 9, 35° C., 24 hours.
In series [7] the test system is Pseudomonas aeruginosa ATCC 27853. Description: NCCLS broth microdilution MIC/MBC. The format is cell-based. To be noted: for MIC: Pseudomonas aeruginosa, ATCC27853, read-out: MIC.
The test system of series [8] is skin wounds infected by Streptococcus and Staphylococcus. Description: Treatment of infected wounds, human volunteers. The format is in vivo. The conditions noted are these: 0.1% ointment for 3 days. As to the method:
Human volunteers suffering from skin wounds infected by Streptococcus and Staphylococcus were treated with 0.1% Compounds (1) and (2) in an ointment base of vaseline, sheep fat, and sulfoxide.

Another series deals with Salmonella intranasally. Briefly: Anti-bacterial activity in vivo, infected mice. To be noted: schedule +2, +3; 200 mg/kg intramuscularly.
Series [9] relates to Corynebacterium paratuberculosis. Description: Anti-bacterial activity in vivo, infected mice. As for the experimental part: The therapeutic and prophylactic effect of the substances was determined in experiments in vivo on mice, infected intraperitoneally or intranasally with Corynebacterium paratuberculosis.
In series [10] the test system is Candida albicans. Briefly: NCCLS broth macro-dilution MIC/MFC (RPMI). The format is cell-based. To be noted: Table 10, 4 day, 30° C.
In series [11] the test system is Fusarium graminearum. Briefly: microbe, parasite or virus in culture. The format is cell-based.
The subject of another series is Trichophyton rubrum. Description: NCCLS broth macro-dilution MIC/MFC (RPMI). The format is cell-based. The conditions noted are these: Table 10, 7 day, 30° C.
A further series concerns Epidermophyton floccosum. Briefly: NCCLS broth macro-dilution MIC/MFC (RPMI). The class given is cell-based. To be noted: Table 10, 7 day, 30° C.
For the next series, the system named is Rhodotorula rubra. Description: NCCLS broth macro-dilution MIC/MFC (RPMI). The format is cell-based. The conditions noted are these: Table 10, 4 day, 30° C.
Another series deals with Microsporum gypseum. Description: NCCLS broth macro-dilution MIC/MFC (RPMI). The class given is cell-based. To be noted: Table 10, 7 day, 30° C.

Take `C[C@@H]1[C@H](O)[C@@H](C)/C=C/C=C/C=C/C=C/C=C/C=C/C=C/[C@H](O[C@@H]2O[C@H](C)[C@@H](O)[C@H](N)[C@@H]2O)C[C@@H]2O[C@](O)(C[C@@H](O)C[C@@H](O)[C@H](O)CC[C@@H](O)C[C@@H](O)CC(=O)O[C@H]1C)C[C@H](O)[C@H]2C(=O)O` [Amphotericin B]: the MIC against C. tropicalis RMIT 181 (Table 16, 24 h) was 0.25 µg/mL (≈ 0.271 µM); against Paecilomyces variotii, 1 µg/mL (≈ 1.08 µM); against Fusarium graminearum [1], 4 µg/mL (≈ 4.33 µM); against Rhizopus stoloniefer it was above 16 µg/mL; in the series on Rhizomucor pusillus it was 1 µg/mL (≈ 1.08 µM); with C. parapsilosis RMIT 178 (Table 16, 24 h), 0.253 µg/mL (≈ 0.274 µM). The MIC amounted to 2 µg/mL (≈ 2.16 µM) in the series on F. chlamydosporum; 8 µg/mL (≈ 8.66 µM) in the series with Fonsecaea pedrosoi; 2 µg/mL (≈ 2.16 µM) against A. Niger; 4 µg/mL (≈ 4.33 µM) against Pseudoallescheria boydii; 0.03 µg/mL (≈ 0.0325 µM) in series [2]; 0.5 µg/mL (≈ 0.541 µM) against Cryptococcus neoformans. The MIC in the series with Phialophora verrucosa amounted to 2 µg/mL (≈ 2.16 µM); with R. oryzae it was 4 µg/mL (≈ 4.33 µM); against C. krusei RMIT 177 (Table 16, 24 h), 0.52 µg/mL (≈ 0.563 µM); against Candida albicans [3], 0.251 µg/mL (≈ 0.272 µM); in the series on C. glabrate RMIT 157, 0.5 µg/mL (≈ 0.541 µM); with A. Flavus, 8 µg/mL (≈ 8.66 µM). For the same compound, the MMC was 0.5 µg/mL in the series with C. tropicalis RMIT 181 (Table 16, 24 h); 1 µg/mL in the series with Paecilomyces variotii; 8 µg/mL with Fusarium graminearum [1]; 1 µg/mL in the series with Rhizomucor pusillus; 0.25 µg/mL in the series with C. parapsilosis RMIT 178 (Table 16, 24 h); 2 µg/mL in the series on F. chlamydosporum. Besides, the MMC with Fonsecaea pedrosoi stood at 16 µg/mL; in the series on A. Niger, 2 µg/mL; in the series with Pseudoallescheria boydii, 16 µg/mL; with Aspergillus fumigatus it was 8 µg/mL; in series [2], 0.06 µg/mL; in the series with Phialophora verrucosa it was 4 µg/mL. Also, the MMC was 4 µg/mL in the series on R. oryzae; 0.5 µg/mL in the series with C. krusei RMIT 177 (Table 16, 24 h); 0.25 µg/mL in the series with Candida albicans [3]; 1 µg/mL in the series on C. glabrate RMIT 157; 8 µg/mL in the series on A. Flavus.

Take `O=C(O)c1cn(C2CC2)c2cc(N3CCNCC3)c(F)cc2c1=O` [Ciprofloxacin]: the MIC in series [4] (Table 9, 35° C., 24 hours) was found to be 0.25 µg/mL (≈ 0.754 µM); in [4] (Table 17, 2 or 3 replicates), 0.25 µg/mL (≈ 0.754 µM); in [5] (Table 9, 35° C., 24 hours), 0.5 µg/mL (≈ 1.51 µM); in series [5] (Table 17, 2 or 3 replicates), 0.5 µg/mL (≈ 1.51 µM); in series [6] (Table 9, 35° C., 24 hours), 0.02 µg/mL (≈ 0.0604 µM); in series [6] (Table 17, 2 or 3 replicates), 0.02 µg/mL (≈ 0.0604 µM). The MIC was determined as 0.006 µg/mL (≈ 0.0181 µM) in the series on Haemophilus influenzae (Haemophilus influenzae, read-out: MIC); 0.25 µg/mL (≈ 0.754 µM) in series [7] (Table 9, 35° C., 24 hours); 0.25 µg/mL (≈ 0.754 µM) in series [7] (Table 17, 2 or 3 replicates). Moreover, the MMC in series [4] (Table 9, 35° C., 24 hours) came out at 0.25 µg/mL; in series [4] (Table 17, 2 or 3 replicates) it was 0.25 µg/mL; in series [5] (Table 9, 35° C., 24 hours) it was 0.5 µg/mL; in [5] (Table 17, 2 or 3 replicates) it was 0.5 µg/mL; in series [6] (Table 9, 35° C., 24 hours), 0.02 µg/mL; in [6] (Table 17, 2 or 3 replicates) it was 0.02 µg/mL. Also, the MMC was 0.006 µg/mL with Haemophilus influenzae; 0.25 µg/mL in series [7] (Table 9, 35° C., 24 hours); 0.25 µg/mL in series [7] (Table 17, 2 or 3 replicates). Further, the decrease in activity was 4 fold in the series with S. aureus (in the presence of 10% plasma) and 2 fold in the series on S. aureus (in the presence of whole blood).

Regarding `O=[N+]([O-])/C=C/c1ccc2c(c1)OCO2` [Compound (2), 3,4-methylenedioxy-β-nitrostyrene], the “clearing of infected wound” value in [8] was “cleared the wound completely of pus”. Besides, in the series on Salmonella intranasally, the “Cumulative mortality (test)” value is given as 15 and the “Incubation period days (test)” value came out at 1 days. In “Solubility”, the “solubility in organic solvents” value is “soluble in acetone, alcohol, acetic acid and in a majority of organic solvents”; the solubility in water entry is “non-soluble in water”. Moreover, the “therapeutic and prophylactic activity” value in series [9] was “showed therapeutic and prophylactic activity”.

Regarding `Clc1ccc(COC(Cn2ccnc2)c2ccc(Cl)cc2Cl)c(Cl)c1` (stereo not drawn) [Miconazole], the MIC in the series with C. tropicalis RMIT 181 (Candida tropicalis, RMIT181, Table 16, 24 h, read-out: MIC) came to 1 µg/mL (≈ 2.4 µM); with C. parapsilosis RMIT 178 (Lodderomyces parapsilosis, RMIT178, Table 16, 24 h, read-out: MIC) it was 0.5 µg/mL (≈ 1.2 µM); against Candida albicans [10] (Candida albicans, 96 h), 4 µg/mL (≈ 9.61 µM); in the series with Fusarium graminearum [11] (Fusarium graminearum, 168 h), 32 µg/mL (≈ 76.9 µM); against Trichophyton rubrum (Trichophyton rubrum, 168 h) it was 1 µg/mL (≈ 2.4 µM); in [2] (read-out: MIC), 1 µg/mL (≈ 2.4 µM). Besides, the MIC in the series on Cryptococcus neoformans (Cryptococcus neoformans, read-out: MIC) worked out at 4 µg/mL (≈ 9.61 µM); in the series on C. krusei RMIT 177 (Pichia kudriavzevii, RMIT177, Table 16, 24 h, read-out: MIC), 2 µg/mL (≈ 4.81 µM); in the series with Epidermophyton floccosum (Epidermophyton floccosum, 168 h), 0.25 µg/mL (≈ 0.601 µM); in the series on Rhodotorula rubra (Rhodotorula, 96 h) it was 8 µg/mL (≈ 19.2 µM); in the series with C. glabrate RMIT 157 (read-out: MIC), 0.25 µg/mL (≈ 0.601 µM); against Microsporum gypseum (Nannizzia gypsea, 168 h), 4 µg/mL (≈ 9.61 µM). The MMC with C. tropicalis RMIT 181 (Table 16, 24 h) is 2 µg/mL; in the series on C. parapsilosis RMIT 178 (Table 16, 24 h) it was 0.5 µg/mL; in the series with Candida albicans [10], 8 µg/mL; with Fusarium graminearum [11] (Table 10, 7 day, 30° C.), 32 µg/mL; in the series on Trichophyton rubrum it was 64 µg/mL; in series [2], 1 µg/mL. For the same compound, the MMC in the series on C. krusei RMIT 177 (Table 16, 24 h) was determined as 2 µg/mL; in the series with Epidermophyton floccosum, 0.25 µg/mL; with Rhodotorula rubra, 32 µg/mL; in the series with C. glabrate RMIT 157 it was 0.5 µg/mL; in the series with Microsporum gypseum, 64 µg/mL.
